Reference: paper PMC11247499, “2,8-Disubstituted-1,5-naphthyridines as Dual Inhibitors of Plasmodium falciparum Phosphatidylinositol-4-kinase and Hemozoin Formation with In Vivo Efficacy” (Journal of Medicinal Chemistry, 2024)
In brackets after ≈: the same amount, converted by molar mass. Several values for one entry are separate records, joined by “and”; a condition that tells them apart may be missing. Identical values can stand only once. Like-named read-outs stand apart in the source and are kept apart here.

Tests used:
β-hematin (βH) formation = test: NP-40 mediated cell-free β-hematin assay; conditions: read-out: β-hematin IC50
[1] = test system: Chinese Hamster Ovary (CHO) cell line; test: cells; format: cell-based; conditions: MTT assay over 48h, read-out: CHO IC50
[2] = test system: P. falciparum NF54 strain; test: Antiplasmodial activity, parasite lactate dehydrogenase assay, NF54; format: cell-based, Plasmodium falciparum; conditions: parasite lactate dehydrogenase assay over 72 h, read-out: Pf IC50 ± SD NF54
PvPI4K = PvPI4K (Plasmodium vivax, UniProt A5KB26); test: biochemical; conditions: purified recombinant PvPI4K, 10 μM ATP, ADP-Glo; mean of N ≥ 2; read-out: PvPI4K IC50 ± SD
[3] = Solubility, miniaturized shake flask method; conditions: aqueous solution
[4] = test system: multidrug-resistant strain, K1; test: Antiplasmodial activity, parasite lactate dehydrogenase assay, K1; format: cell-based, Plasmodium falciparum; conditions: parasite lactate dehydrogenase assay over 72 h, read-out: Pf IC50 ± SD K1
[5] = test system: P. falciparum PI4K conditional knockdown line; test: microbe, parasite or virus in culture; format: cell-based, Plasmodium falciparum
[6] = cell-free NP-40 detergent-mediated assay, n = 2
[7] = Plasmodium falciparum, NF54, 72 h
[8] = Plasmodium falciparum, K1, 72 h

PvPI4K, sequence (A5KB26 entry or part of it): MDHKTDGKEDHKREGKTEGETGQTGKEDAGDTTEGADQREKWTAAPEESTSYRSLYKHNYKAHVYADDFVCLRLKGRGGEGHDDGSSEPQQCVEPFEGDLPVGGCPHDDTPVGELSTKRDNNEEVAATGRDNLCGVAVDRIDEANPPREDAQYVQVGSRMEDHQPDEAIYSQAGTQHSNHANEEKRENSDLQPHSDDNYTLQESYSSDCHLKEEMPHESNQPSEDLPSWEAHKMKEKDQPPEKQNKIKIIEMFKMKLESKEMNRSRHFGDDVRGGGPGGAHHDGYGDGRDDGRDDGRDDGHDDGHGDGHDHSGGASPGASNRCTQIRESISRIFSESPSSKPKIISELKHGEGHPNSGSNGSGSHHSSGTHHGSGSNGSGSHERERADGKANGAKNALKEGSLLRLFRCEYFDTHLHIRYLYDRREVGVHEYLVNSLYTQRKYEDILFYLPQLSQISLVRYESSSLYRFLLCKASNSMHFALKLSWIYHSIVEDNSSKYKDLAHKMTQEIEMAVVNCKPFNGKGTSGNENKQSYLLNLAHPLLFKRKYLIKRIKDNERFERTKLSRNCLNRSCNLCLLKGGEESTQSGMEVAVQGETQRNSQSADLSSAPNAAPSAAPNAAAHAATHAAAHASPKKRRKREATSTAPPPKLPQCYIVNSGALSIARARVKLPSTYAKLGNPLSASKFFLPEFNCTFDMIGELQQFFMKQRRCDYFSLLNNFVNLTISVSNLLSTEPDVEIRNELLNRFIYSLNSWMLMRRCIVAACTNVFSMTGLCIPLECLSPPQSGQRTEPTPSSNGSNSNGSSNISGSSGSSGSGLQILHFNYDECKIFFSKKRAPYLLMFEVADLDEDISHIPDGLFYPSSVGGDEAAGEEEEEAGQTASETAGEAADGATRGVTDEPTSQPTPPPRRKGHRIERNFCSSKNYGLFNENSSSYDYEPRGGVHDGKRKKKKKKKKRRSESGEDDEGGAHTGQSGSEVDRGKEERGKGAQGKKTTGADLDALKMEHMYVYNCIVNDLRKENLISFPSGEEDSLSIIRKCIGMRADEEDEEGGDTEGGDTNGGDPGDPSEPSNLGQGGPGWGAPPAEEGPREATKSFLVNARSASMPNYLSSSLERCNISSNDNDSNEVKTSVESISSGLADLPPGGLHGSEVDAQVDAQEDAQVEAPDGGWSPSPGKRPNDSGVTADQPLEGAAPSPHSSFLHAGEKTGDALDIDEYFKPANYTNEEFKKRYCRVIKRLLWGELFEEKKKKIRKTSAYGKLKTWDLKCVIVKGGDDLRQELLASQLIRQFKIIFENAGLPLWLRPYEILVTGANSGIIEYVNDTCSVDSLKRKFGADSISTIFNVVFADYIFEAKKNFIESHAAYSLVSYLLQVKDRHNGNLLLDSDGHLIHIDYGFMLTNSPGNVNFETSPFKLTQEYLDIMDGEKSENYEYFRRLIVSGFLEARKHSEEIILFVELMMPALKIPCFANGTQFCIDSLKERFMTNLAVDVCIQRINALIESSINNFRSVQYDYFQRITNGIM

CCN(CC)CCCC(C)Nc1ccnc2cc(Cl)ccc12 (centres unmarked) [Chloroquine, reference compound]
IC50 (β-hematin (βH) formation): 21000 ± 2100 nM

CS(=O)(=O)c1cccc(-c2ccc3nccc(NC4CCCNC4)c3n2)c1 (centres unmarked) [Compound 8, 6-(3-Methylsulfonylphenyl)-N-piperidin-3-yl-1,5-naphthyridin-4-amine]
IC50 (β-hematin (βH) formation; [6]): > 500000 nM | IC50 ([1]; Cricetulus griseus, CHO): 33300 nM | IC50 [2, 7]: 200 ± 2 nM | IC50 (PvPI4K): 151 ± 72 nM | solubility at 20 h [3]: 195 µM (≈ 74.6 µg/mL)

CS(=O)(=O)c1cccc(-c2ccc3nccc(N4CC[C@@H](N)C4)c3n2)c1 [Compound 9, (3R)-1-[6-(3-Methylsulfonylphenyl)-1,5-naphthyridin-4-yl]pyrrolidin-3-amine]
IC50 ([1]; Cricetulus griseus, CHO): 22000 nM | IC50 [2, 7]: 100 ± 5 nM | IC50 (PvPI4K): 199 ± 37 nM | solubility at 20 h [3]: 200 µM (≈ 73.7 µg/mL)

CC(=O)N[C@@H]1CCN(c2ccnc3ccc(-c4cccc(S(C)(=O)=O)c4)nc23)C1 [Compound 10, N-[(3R)-1-[6-(3-Methylsulfonylphenyl)-1,5-naphthyridin-4-yl]pyrrolidin-3-yl]acetamide]
IC50 [2, 7]: 890 ± 57 nM | IC50 (PvPI4K): 76 ± 6 nM | solubility at 20 h [3]: 185 µM (≈ 75.9 µg/mL)

CS(=O)(=O)c1cccc(-c2ccc3nccc(N4CC[C@@H](NC(N)=O)C4)c3n2)c1 [Compound 11, [(3R)-1-[6-(3-Methylsulfonylphenyl)-1,5-naphthyridin-4-yl]pyrrolidin-3-yl]urea]
IC50 [2, 7]: 630 ± 133 nM | IC50 (PvPI4K): 39 ± 7 nM

FC(F)(F)c1ccc(-c2ccc3nccc(NC4CCCNC4)c3n2)cn1 (centres unmarked) [Compound 12, N-Piperidin-3-yl-6-[6-(trifluoromethyl)pyridin-3-yl]-1,5-naphthyridin-4-amine]
IC50 (β-hematin (βH) formation; [6]): 66000 ± 1000 nM | IC50 ([1]; Cricetulus griseus, CHO): 43000 nM | IC50 [2, 7]: 90 ± 1 nM | IC50 (PvPI4K): 276 ± 33 nM | solubility at 20 h [3]: 195 µM (≈ 72.8 µg/mL)

N[C@@H]1CCN(c2ccnc3ccc(-c4ccc(C(F)(F)F)nc4)nc23)C1 [Compound 13, (3R)-1-[6-[6-(Trifluoromethyl)pyridin-3-yl]-1,5-naphthyridin-4-yl]pyrrolidin-3-amine]
IC50 ([1]; Cricetulus griseus, CHO): 20000 nM | IC50 [2, 7]: 60 ± 8 nM | IC50 [4, 8]: 110 ± 13 nM | IC50 (PvPI4K): 1200 ± 481 nM | solubility at 20 h [3]: 135 µM (≈ 48.5 µg/mL)

FC(F)(F)c1ccc(-c2ccc3nccc(N[C@H]4CCNC4)c3n2)cn1 [Compound 15, N-[(3S)-Pyrrolidin-3-yl]-6-[6-(trifluoromethyl)pyridin-3-yl]-1,5-naphthyridin-4-amine]
IC50 ([1]; Cricetulus griseus, CHO): 46000 nM | IC50 [2, 7]: 70 ± 13 nM | IC50 (PvPI4K): 164 ± 69 nM | solubility at 20 h [3]: 200 µM (≈ 71.9 µg/mL)

NC1CCN(c2ccnc3ccc(-c4ccc(C(F)(F)F)nc4)nc23)CC1 [Compound 18, 1-[6-[6-(Trifluoromethyl)pyridin-3-yl]-1,5-naphthyridin-4-yl]piperidin-4-amine]
IC50 (β-hematin (βH) formation; [6]): 137000 ± 4000 nM | IC50 ([1]; Cricetulus griseus, CHO): > 50000 nM | IC50 [2, 7]: 420 ± 87 nM | IC50 [4, 8]: 477 ± 34 nM | IC50 (PvPI4K): 559 ± 30 nM | solubility at 20 h [3]: 160 µM (≈ 59.7 µg/mL)

FC(F)(F)c1ccc(-c2ccc3nccc(OC4CCNCC4)c3n2)cn1 [Compound 19, 8-Piperidin-4-yloxy-2-[6-(trifluoromethyl)pyridin-3-yl]-1,5-naphthyridine]
IC50 (β-hematin (βH) formation; [6]): 94000 ± 3000 nM | IC50 [2, 7]: 3850 ± 954 nM | IC50 (PvPI4K): 265 ± 160 nM

FC(F)(F)c1ccc(-c2ccc3nccc(NCC4CCNCC4)c3n2)cn1 [Compound 20, N-(Piperidin-4-ylmethyl)-6-[6-(trifluoromethyl)pyridin-3-yl]-1,5-naphthyridin-4-amine]
IC50 (β-hematin (βH) formation; [6]): 37000 nM and < 60000 nM | IC50 ([1]; Cricetulus griseus, CHO): > 50000 nM | IC50 [2, 7]: 65 ± 2 nM | IC50 [4, 8]: 350 ± 4 nM | IC50 (PvPI4K): 1510 ± 643 nM | solubility at 20 h [3]: 190 µM (≈ 73.6 µg/mL)

OCCN1CCC(Nc2ccnc3ccc(-c4ccc(C(F)(F)F)nc4)nc23)CC1 [Compound 22, 2-[4-[[6-[6-(Trifluoromethyl)pyridin-3-yl]-1,5-naphthyridin-4-yl]amino]piperidin-1-yl]ethanol]
IC50 [2, 7]: 253 ± 2 nM | IC50 [4, 8]: 385 ± 41 nM | IC50 (PvPI4K): 303 ± 74 nM | solubility at 20 h [3]: 145 µM (≈ 60.5 µg/mL)

CC1CNCCC1Nc1ccnc2ccc(-c3ccc(C(F)(F)F)nc3)nc12 (centres unmarked) [Compound 24, N-(3-Methylpiperidin-4-yl)-6-[6-(trifluoromethyl)pyridin-3-yl]-1,5-naphthyridin-4-amine]
IC50 ([1]; Cricetulus griseus, CHO): 47000 nM | IC50 [2, 7]: 50 ± 25 nM | IC50 [4, 8]: 104 ± 9 nM | IC50 (PvPI4K): 131 ± 89 nM | solubility at 20 h [3]: 195 µM (≈ 75.5 µg/mL)

CN1CCC(Nc2ccnc3ccc(-c4cccnc4)nc23)CC1 [Compound 29, N-(1-Methylpiperidin-4-yl)-6-pyridin-3-yl-1,5-naphthyridin-4-amine]
IC50 ([1]; Cricetulus griseus, CHO): > 50000 nM | IC50 [2, 7]: 526 ± 47 nM | IC50 [4, 8]: 1280 ± 148 nM | IC50 (PvPI4K): 64 ± 14 nM | solubility at 20 h [3]: 195 µM (≈ 62.3 µg/mL)

CN1CCC(Nc2ccnc3ccc(-c4cccnc4C(F)(F)F)nc23)CC1 [Compound 30, N-(1-Methylpiperidin-4-yl)-6-[2-(trifluoromethyl)pyridin-3-yl]-1,5-naphthyridin-4-amine]
IC50 (β-hematin (βH) formation; [6]): 75000 ± 6000 nM | IC50 ([1]; Cricetulus griseus, CHO): > 50000 nM | IC50 [2, 7]: 270 ± 96 nM | IC50 [4, 8]: 300 ± 11 nM | IC50 (PvPI4K): 170 ± 38 nM | solubility at 20 h [3]: 200 µM (≈ 77.5 µg/mL)

Cc1nc(C(F)(F)F)ccc1-c1ccc2nccc(NC3CCN(C)CC3)c2n1 [Compound 31, N-(1-Methylpiperidin-4-yl)-6-[2-methyl-6-(trifluoromethyl)pyridin-3-yl]-1,5-naphthyridin-4-amine]
IC50 ([1]; Cricetulus griseus, CHO): > 50000 nM | IC50 [2, 7]: 499 ± 24 nM | IC50 [4, 8]: 367 ± 5 nM | IC50 (PvPI4K): 174 ± 102 nM | solubility at 20 h [3]: 195 µM (≈ 78.3 µg/mL)

CNC(=O)c1ccc(-c2ccc3nccc(NC4CCN(C)CC4)c3n2)cn1 [Compound 33, N-Methyl-5-[8-[(1-methylpiperidin-4-yl)amino]-1,5-naphthyridin-2-yl]pyridine-2-carboxamide]
IC50 (β-hematin (βH) formation; [6]): 131000 ± 6000 nM | IC50 ([1]; Cricetulus griseus, CHO): 25000 nM | IC50 [2, 7]: 400 ± 1 nM | IC50 [4, 8]: > 6000 nM | IC50 (PvPI4K): 77 ± 48 nM

CN1CCC(Nc2cc(=O)[nH]c3ccc(-c4ccc(C(F)(F)F)nc4)nc23)CC1 [Compound 37, 4-[(1-Methylpiperidin-4-yl)amino]-6-[6-(trifluoromethyl)pyridin-3-yl]-1H-1,5-naphthyridin-2-one]
IC50 [2, 7]: 4200 ± 1000 nM | IC50 (PvPI4K): > 10000 nM | solubility at 20 h [3]: 45 µM (≈ 18.2 µg/mL)

CS(=O)(=O)c1ccc(-c2cnc(N)c(-c3ccc(C(F)(F)F)nc3)c2)cc1 [MMV390048, reference compound]
IC50 ([5]; Plasmodium falciparum, 72 h, read-out: ABS IC50 for PfPI4K cKD, N=1, +aTc, experiment N=1, +aTc (500 nM, control conditions), 72 hours): 31 nM | IC50 ([5]; Plasmodium falciparum, 72 h, read-out: ABS IC50 for PfPI4K cKD, N=1, no aTc, experiment N=1, no aTc (PI4K knockdown), 72 hours): 4 nM | IC50 ([5]; Plasmodium falciparum, 72 h, read-out: ABS IC50 for PfPI4K cKD, N=2, +aTc, experiment N=2, +aTc (500 nM, control conditions), 72 hours): 29 nM | IC50 ([5]; Plasmodium falciparum, 72 h, read-out: ABS IC50 for PfPI4K cKD, N=2, no aTc, experiment N=2, no aTc (PI4K knockdown), 72 hours): 4.31 nM | IC50 ([5]; Plasmodium falciparum, 72 h, read-out: ABS IC50 for PfPI4K cKD, N=3, +aTc, experiment N=3, +aTc (500 nM, control conditions), 72 hours): 25 nM | IC50 ([5]; Plasmodium falciparum, 72 h, read-out: ABS IC50 for PfPI4K cKD, N=3, no aTc, experiment N=3, no aTc (PI4K knockdown), 72 hours): 3.48 nM | IC50 ([5]; Plasmodium falciparum, read-out: ABS IC50 for PfPI4K cKD, Mean + SD, +aTc, mean of N=3, +aTc (control conditions)): 26 ± 3 nM | IC50 ([5]; Plasmodium falciparum, read-out: ABS IC50 for PfPI4K cKD, Mean + SD, no aTc, mean of N=3, no aTc (PI4K knockdown)): 3.7 ± 0.4 nM | IC50 ([5]; read-out: ABS IC50 for PfPI4K cKD, N=1, +aTc, experiment N=1, +aTc (500 nM, control conditions), 72 hours): 27 nM | IC50 ([5]; read-out: ABS IC50 for PfPI4K cKD, N=2, +aTc, experiment N=2, +aTc (500 nM, control conditions), 72 hours): 21 nM | IC50 ([5]; read-out: ABS IC50 for PfPI4K cKD, N=2, no aTc, experiment N=2, no aTc (PI4K knockdown), 72 hours): 3.39 nM | IC50 ([5]; read-out: ABS IC50 for PfPI4K cKD, N=3, +aTc, experiment N=3, +aTc (500 nM, control conditions), 72 hours): 23 nM | IC50 ([5]; read-out: ABS IC50 for PfPI4K cKD, N=3, no aTc, experiment N=3, no aTc (PI4K knockdown), 72 hours): 3.31 nM | IC50 [2, 7]: 36 nM

(R)-6-(6-Methoxypyridin-3-yl)-N-(pyrrolidin-3-yl)-1,5-naphthyridin-4-amine [Compound 34]
IC50 [1]: 17000 nM | IC50 [2]: 225 ± 7 nM | IC50 [4]: 667 ± 60 nM | IC50 (PvPI4K): 111 ± 69 nM
